Test results as given in publication PMC3496402 (Drug Design, Development and Therapy, 2012).
Where two headings read alike, the source gives them in different places. One block for each molecule: values may come before it.

Legend:
[1] = target: T1, hURAT1 (SLC22A12) (Homo sapiens, UniProt Q96S37); assay: inhibition of 14C-urate uptake in oocytes expressing hURAT1; format: cell-based; conditions: for IC50: hURAT1 IC50 (nM) ± SD, inhibition of 14C-urate uptake in oocytes expressing hURAT1; for fold weaker hURAT1 inhibitor than (1): IC50 compared with (1) (26 nM)
T1 sequence (Q96S37 1-553): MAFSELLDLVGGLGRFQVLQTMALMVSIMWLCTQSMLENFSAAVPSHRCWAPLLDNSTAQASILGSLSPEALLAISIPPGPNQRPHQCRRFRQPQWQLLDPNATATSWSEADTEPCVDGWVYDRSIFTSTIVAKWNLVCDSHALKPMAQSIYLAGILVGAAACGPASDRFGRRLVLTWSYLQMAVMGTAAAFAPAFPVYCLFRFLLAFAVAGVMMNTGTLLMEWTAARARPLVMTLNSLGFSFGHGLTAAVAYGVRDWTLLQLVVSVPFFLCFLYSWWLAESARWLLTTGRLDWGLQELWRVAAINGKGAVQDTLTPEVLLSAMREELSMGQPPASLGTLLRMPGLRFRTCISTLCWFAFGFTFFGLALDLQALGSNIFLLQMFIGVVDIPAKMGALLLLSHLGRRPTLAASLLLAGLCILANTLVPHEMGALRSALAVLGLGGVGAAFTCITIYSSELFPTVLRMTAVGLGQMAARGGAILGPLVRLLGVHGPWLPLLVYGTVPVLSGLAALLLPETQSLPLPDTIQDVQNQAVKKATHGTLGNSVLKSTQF

[2] = rat liver microsomal incubations, intrinsic clearance; format: in vitro ADME; conditions: Sprague-Dawley, microsomes, pH 7.4
[3] = rat pharmacokinetics, intravenous; format: in vivo, male Sprague-Dawley rats; conditions: for AUC: male, Sprague-Dawley, rat, whole blood, iv, 0.5 mg/kg
[4] = cited from earlier work

SMILES: CCc1oc2ccc(O)cc2c1C(=O)c1cc(Br)c(O)c(Br)c1 [(8), (3,5-dibromo-4-hydroxyphenyl)(2-ethyl-5-hydroxybenzofuran-3-yl)methanone]
microsomal CLint at 1 µM [2]: 52 ± 0.1 µL/min/mg | AUC [3]: 940 ± 80 ng·h/mL

SMILES: CCc1cc2c(C(=O)c3ccc(OC)cc3)cc(Br)c(O)c2o1 [(23), (6-bromo-2-ethyl-7-hydroxybenzofuran-4-yl)(4-methoxyphenyl)methanone]
microsomal CLint at 1 µM [2]: 121 ± 12.2 µL/min/mg

SMILES: CCc1oc2ccc(F)cc2c1C(=O)c1cc(Br)c(O)c(Br)c1 [(9), (3,5-dibromo-4-hydroxyphenyl)(2-ethyl-5-fluorobenzofuran-3-yl)methanone]
microsomal CLint at 1 µM [2]: 142 ± 5.5 µL/min/mg | AUC [3]: 5260 ± 810 ng·h/mL

SMILES: CCc1oc2ccc(OC)cc2c1C(=O)c1cc(Br)c(O)c(Br)c1 [(6), (3,5-dibromo-4-hydroxyphenyl)(2-ethyl-5-methoxybenzofuran-3-yl)methanone]
microsomal CLint at 1 µM [2]: 44.9 ± 6.6 µL/min/mg | AUC [3]: 2630 ± 250 ng·h/mL

SMILES: CCc1cc2c(C(=O)c3cc(Br)c(O)c(Br)c3)cc(Br)c(O)c2o1 [(26), (6-bromo-2-ethyl-7-hydroxybenzofuran-4-yl)(3,5-dibromo-4-hydroxyphenyl)methanone]
microsomal CLint at 1 µM [2]: 34.3 ± 1.2 µL/min/mg

SMILES: CCc1cc2cc(O)cc(C(=O)c3cc(Br)c(O)c(Br)c3)c2o1 [(22), (3,5-dibromo-4-hydroxyphenyl)(2-ethyl-5-hydroxybenzofuran-7-yl)methanone]
microsomal CLint at 1 µM [2]: 454 ± 18.2 µL/min/mg

SMILES: CCc1oc2cc(OC)ccc2c1C(=O)c1cc(Br)c(O)c(Br)c1 [(3), (3,5-dibromo-4-hydroxyphenyl)(2-ethyl-6-methoxybenzofuran-3-yl)methanone]
microsomal CLint at 1 µM [2]: 207 ± 4.2 µL/min/mg | AUC [3]: 9600 ± 280 ng·h/mL

SMILES: CCCCc1oc2ccccc2c1C(=O)c1ccc(O)cc1 [(17), (2-butylbenzofuran-3-yl)(4-hydroxyphenyl)methanone]
hURAT1 inhibition compared with corresponding ethyl analog ([1]; butyl versus ethyl analog, ethyl analog ref 10): much weaker inhibitor than the corresponding ethyl analog

SMILES: CC(C)(C)c1cccc(C(C)(C)C)c1O [2,6-di-tert-butyl-phenol]
pKa ([4]; phenol pKa values ref 11): 10.2

SMILES: O=c1[nH]c(=O)c2[nH]c(=O)[nH]c2[nH]1 [uric acid]
pKa ([4]; in urine): 5.4

SMILES: CCc1oc2cc(Br)c(O)c(Br)c2c1C(=O)c1ccc(OC)cc1 [(7), (4,6-dibromo-2-ethyl-5-hydroxybenzofuran-3-yl)(4-methoxyphenyl)methanone]
microsomal CLint at 1 µM [2]: 286.8 ± 0.9 µL/min/mg

SMILES: CCc1cc2c(C(=O)c3cc(Br)c(O)c(Br)c3)c(O)ccc2o1 [(25), (3,5-dibromo-4-hydroxyphenyl)(2-ethyl-5-hydroxybenzofuran-4-yl)methanone]
microsomal CLint at 1 µM [2]: 94.8 ± 5.1 µL/min/mg

SMILES: CCc1cc2cc(OC)cc(C(=O)c3cc(Br)c(O)c(Br)c3)c2o1 [(21), (3,5-dibromo-4-hydroxyphenyl)(2-ethyl-5-methoxybenzofuran-7-yl)methanone]
microsomal CLint at 1 µM [2]: 210 ± 5.9 µL/min/mg

SMILES: CCc1oc2cc(O)ccc2c1C(=O)c1cc(Br)c(O)c(Br)c1 [(5), (3,5-dibromo-4-hydroxyphenyl)(2-ethyl-6-hydroxybenzofuran-3-yl)methanone]
microsomal CLint at 1 µM [2]: 19.7 ± 2.8 µL/min/mg | AUC [3]: 6160 ± 680 ng·h/mL

SMILES: CCc1cc2c(C(=O)c3cc(Br)c(O)c(Br)c3)c(OC)ccc2o1 [(24), (3,5-dibromo-4-hydroxyphenyl)(2-ethyl-5-methoxybenzofuran-4-yl)methanone]
microsomal CLint at 1 µM [2]: 323 ± 10.8 µL/min/mg

SMILES: CCc1cc2cc(OC)cc(C(=O)c3ccc(OC)cc3)c2o1 [(20), (2-ethyl-5-methoxybenzofuran-7-yl)(4-methoxyphenyl)methanone]
microsomal CLint at 1 µM [2]: 704 ± 12.7 µL/min/mg

SMILES: CCc1oc2cc(OC)c(Br)cc2c1C(=O)c1cc(Br)c(O)c(Br)c1 [(4), (5-bromo-2-ethyl-6-methoxybenzofuran-3-yl)(3,5-dibromo-4-hydroxyphenyl)methanone]
microsomal CLint at 1 µM [2]: 23.5 ± 10.9 µL/min/mg

Next, values leading:

IC50 [1]: 874 ± 56 nM
SMILES: CCc1oc2ccccc2c1C(=O)c1ccc(O)c(Cl)c1 [(11), (3-chloro-4-hydroxyphenyl)(2-ethylbenzofuran-3-yl)methanone]

fold weaker hURAT1 inhibitor than (1) [1]: ~ 15 fold | IC50 [1]: 399 ± 56 nM
SMILES: CCc1oc2ccccc2c1C(=O)c1cc(Cl)c(O)c(Cl)c1 [(19), (3,5-dichloro-4-hydroxyphenyl)(2-ethylbenzofuran-3-yl)methanone]

microsomal CLint at 1 µM [2]: 51.3 ± 6.7 µL/min/mg | AUC [3]: 9070 ± 590 ng·h/mL | T1/2 ([3]; parent compound, orbital sinus 0.5 mg/kg, blood, n = 3 ± SD): 1.1 ± 0.1 h
SMILES: CCc1oc2ccccc2c1C(=O)c1cc(Br)c(O)c(Br)c1 [(1), (3,5-dibromo-4-hydroxyphenyl)(2-ethylbenzofuran-3-yl)methanone, reference compound]

IC50 [1]: 7540 ± 60 nM
SMILES: CCc1oc2ccccc2c1C(=O)c1cc(C)c(O)c(C)c1 [(15), (2-ethylbenzofuran-3-yl)(4-hydroxy-3,5-dimethylphenyl)methanone]

microsomal CLint at 1 µM [2]: 412 ± 6.4 µL/min/mg
SMILES: CCc1oc2ccc(OC)cc2c1C(=O)c1ccc(O)cc1 [(2), (2-ethyl-5-methoxybenzofuran-3-yl)(4-hydroxyphenyl)methanone]

IC50 [1]: 1490 ± 80 nM
SMILES: CCc1oc2ccccc2c1C(=O)c1ccc(O)c(I)c1 [(13), (2-ethylbenzofuran-3-yl)(4-hydroxy-3-iodophenyl)methanone]

IC50 [1]: 814 ± 160 nM
SMILES: CCc1oc2ccccc2c1C(=O)c1ccc(O)c(Br)c1 [(12), (3-bromo-4-hydroxyphenyl)(2-ethylbenzofuran-3-yl)methanone]

IC50 [1]: 2410 ± 90 nM
SMILES: CCc1oc2ccccc2c1C(=O)c1ccc(O)c(F)c1 [(10), (2-ethylbenzofuran-3-yl)(3-fluoro-4-hydroxyphenyl)methanone]

IC50 [1]: 1930 ± 90 nM
SMILES: CCCCc1oc2ccccc2c1C(=O)c1cc(Br)c(O)c(Br)c1 [(18), (2-butylbenzofuran-3-yl)(3,5-dibromo-4-hydroxyphenyl)methanone]

fold weaker hURAT1 inhibitor than (1) [1]: ~ 47 fold | IC50 [1]: 1220 ± 110 nM
SMILES: CCc1oc2ccccc2c1C(=O)c1cc(Br)c(OC)c(Br)c1 [(16), (3,5-dibromo-4-methoxyphenyl)(2-ethylbenzofuran-3-yl)methanone]
